Experimental data from patent US12558358B2 (UNIVERZITA PALACKEHO V OLOMOUCI, priority 2019, dated 2026).

Assays:
[1] = tested on: Per2 gene expression (mPer2-Luc reporter); assay: mPer2-Luc reporter expression in NIH3T3 cells (Example 5); assay type: cell-based, mouse; conditions: NIH3T3, first 1-12 hours after application, FIG. 5
Procedure: Mouse embryonic fibroblasts NIH3T3 cells were grown in standard DMEM with 10% fetal calf serum. NIH3T3 cells were transfected with 1 μg of Per2-Luc reporter (Meng, 2009) using GeneJuice (Novagen) and selected under hygromycin. The cell line was clonally expanded and a single monoclonal cell line was used for further experiments. Cells were cultured in a 96-well plate in growth medium to 90+% confluence. Test compound or vehicle (DMSO) was applied to recording medium with 100 U/ml penicillin, 100 μg/ml streptomycin, 1×GlutaMAX (ThermoFisher, Waltham, MA, USA), 10% fetal calf serum (Sigma) and 0.1 mM Luciferin-EF (Promega Madison, WI, USA). Luminescence was recorded every hour for additional 144 hours in Luminoskan Ascent (ThermoFisher).

Human fibroblasts BJ = assay: Long-term cultivation of BJ fibroblasts, cell count (Example 9); assay type: cell-based; conditions: 12.5-100 µM, 12th day, FIG. 8
Procedure: Human fibroblasts BJ were maintained in standard cultivation medium DMEM with 10% fetal bovine serum. The experiment was performed in 24-well plates. 10,000 cells in DMEM medium with 10% fetal bovine serum were seeded into the wells. The test compound was added to a final concentration in the range of 12.5-100 µM after 24 hours. DMSO vehicle was used as a negative control. In order to obtained better idea of test variability, 8 control wells were used (columns A and D). The cultivation medium containing either test compound or DMSO was replaced twice a week. The cells were trypsinized on the 12th day and counted on Coulter Z2 apparatus.

[2] = tested on: U2OS cells with mBmal1-Luc reporter; assay: Combination with other chronotherapeutics, mBmal1-Luc U2OS cells (Example 6); assay type: cell-based, human
Procedure: (§1) Human osteosarcoma U2OS cells were grown in standard DMEM with 10% fetal calf serum. U2OS cells were transduced with lentiviral particles containing the reporter pLV6-Bmal1-Luc (S. Brown, Addgene plasmid #68833) and selected under Blasticidin. The cell line was clonally expanded and a single monoclonal cell line was used for further experiments. Cells were cultured in a 384-well plate in growth medium to 90+% confluence. Test compounds or vehicle (DMSO) were applied to recording medium with 100 U/ml penicillin, 100 μg/ml streptomycin, 1×GlutaMAX (ThermoFisher, Waltham, MA, USA), 10% fetal calf serum (Sigma) and 0.1 mM Luciferin-EF (Promega Madison, WI, USA). Luminescence was recorded every hour for additional 144 hours in Luminoskan Ascent (ThermoFisher). Circadian rhythm analysis was performed by cosinor analysis.

cancer cell line A549 = assay: Resazurin viability of A549 cells, pretreatment plus antineoplastics (Example 7); assay type: cell-based, human; conditions: pretreatment 100 μM, antineoplastics 3.3 μM, 72 incubation, FIG. 7
Procedure: Human cancer cell line A549 was maintained in standard cultivation medium DMEM with 10% fetal bovine serum. 1000 cells were seeded into the wells of 384-well plate in 30 microliters of RPMI medium. After 24 hours, dexamethasone (final concentration 100 nM) was added in order to synchronize circadian oscillator together with N-(furan-2-ylmethyl)-7H-purin-6-amin (final concentration 100 μM) or DMSO vehicle. After 12 hours, DMSO vehicle or the evaluated antineoplastics (the final concentration 3.3 μM) were added. The compounds were dosed by ECHO system, the DMSO solutions were 1000-times concentrated. After 72 incubation, 1000-times concentrated solution of resazurin in DMSO to a final concentration of 0.0125 mg/ml was added. Fluorescence was measured after 3-hour incubation. […] An equivalent cytotoxic effect can be therefore achieved by an application of lower dose of antineoplastics.

in vitro [3] = assay type: in vitro ADME; conditions: PAMPA, pH 7.4
Procedure: (§2) This system is further referred to as RF-MS. Preparation of the lyophilized samples for the analysis is described in the sections dedicated to the individual methods. Lyophilized samples were dissolved in the mobile phase (95% water, 5% acetonitrile, 0.1% formic acid) with respective internal standards. The dissolved samples were aspired directly from 96-well plates into a 10 μL sample loop and passed through a C4 cartridge (Agilent Technologies) with solvent A (95% water, 0.01% formic acid, 5% acetonitrile) at a flow rate of 1.5 mL/minute for 3 seconds. After the desalting step, the analyte retained on the cartridge was eluted with solvent B (95% acetonitrile, 5% 0.01% formic acid) to the mass spectrometer at a flow rate of 0.4 mL/minute for 7 seconds. Mass spectrometry was carried out using electrospray ionization in the positive ion mode. Daughter ion peaks were identified using a multiple-reaction monitoring protocol.
The parallel artificial membrane permeability assay (PAMPA) was performed using the Millipore MultiScreen filter MultiScreen-IP Durapore 0.45 μm plates and receiver plates (Merck Millipore) according to the manufacturer's protocol PC040EN00. […]
Calculations: The relative permeability log Pe was calculated as log Pe=log{Cx−ln(1−drugA/drugE)}, where C=(VA×VD)/{(VD+VA)×A×T}. […]

[4] = tested on: retinal epithelium cells ARPE-19; assay type: cell-based; conditions: human, 72 h
Procedure: (§3) It is used for viability testing of eukaryotic cells. The effect of the compounds in several concentrations (maximum concentration of 100 microM and 3 three-fold dilutions) on viability of skin fibroblasts BJ and retinal epithelium cells ARPE-19 was evaluated after 72 hour treatment. The cells were maintained in standard cultivation medium DMEM with 10% fetal bovine serum. 5000 cells were seeded into 96-well plates 24 hours prior to the addition of test compound. DMSO vehicle was used as a negative control. After 72 hours, 1000-times concentrated solution of resazurin in DMSO was added to the cells zo the final concentration of 0.0125 mg/ml. Fluorescence (ex=570 nm, em=610 nm) was measured after 1 hour (ARPE-19) or 3 hours (BJ) of incubation. IC50 values were calculated from dose response curves using drc library for R programming environment.

skin fibroblasts BJ = assay type: cell-based; conditions: human, 72 h
Procedure: as §3

[5] = tested on: explanted suprachiasmatic nuclei (SCN) of mPer2Luc mice; assay: PER2::Luc rhythm in organotypic SCN explants (Example 3); assay type: cell-based, mouse
Procedure: amplitude of circadian expression of the PER2::Luc clock reporter in the explanted suprachiasmatic nuclei (SCN) of the hypothalamus, the central clock of mammals, of the transgenic mouse line Male and female mPer2Luc mice (strain B6.129S6-Per2tm1Jt/J, JAX, USA) (Yoo et al., 2004) were maintained in a light/dark cycle with 12 hours of light and 12 hours of darkness (LD12: 12), killed between 12:00 and 15:00, i.e. 6-9 hours after turning on the lights, by rapid cervical dislocation under isoflurane anesthesia, their brains were removed and 250 μm thick SCN slices in ice-cold HBSS medium were prepared using a vibratome (Leica, Wetzlar, Germany). Two explants containing SCN from each brain were prepared. Individual SCN explants were then placed on Millicell Culture Inserts (Merck, Darmstadt, Germany) inside 35 mm Petri dishes with test compound or DMSO vehicle in 1 ml air-buffered recording medium supplemented with 100 U/ml penicillin, 100 μg/ml streptomycin (Sigma-Aldrich, St. Luis, MO, USA), 1×GlutaMAX (ThermoFisher, Waltham, MA, USA), 5% fetal calf serum (Sigma) and 0.1 mM Luciferin-EF (Promega Madison, WI, USA). The dishes were sealed with vacuum Vaseline and glass coverslips and placed inside a LumiCycle (Actimetrics) for bioluminescence recording. Rhythm analysis was performed in Lumicycle Analysis software (Actimetrics).

in vitro [6] = assay type: in vitro ADME
Procedure: as §2
Caco-2 (American Tissue Type Collection) a MDR1-MCDK (Netherlands Cancer Institute) were cultured in DMEM medium with 10% fetal bovine serum. […]
Calculations: The apparent permeability coefficient was calculated as Papp=(dQ/dt)/(C0×A), where dQ/dt is the rate of permeation of the drug across the cell monolayer, C0 is the donor compartment concentration at time t=0 and A is the area of the cell monolayer. […]

[7] = assay type: in vitro ADME; conditions: human, 2 μM
Procedure: as §2
Test compound (a final concentration of 2 μM) was incubated with human plasma (Transfusion Department, University Hospital Olomouc, Olomouc, Czech Republic) for 0, 15, 30, 60 and 120 min at 37° C. The reactions were stopped by addition of acetonitrile-methanol mixture (2:1). Samples were stored at −80° C. overnight and centrifuged (2811×g, 6 min, 4° C.). Supernatants were lyophilized.

[8] = tested on: NIH3T3 cells with mPer2-Luc reporter; assay: Circadian rhythm period and amplitude, NIH3T3 cells with Per2-Luc reporter (Example 2); assay type: cell-based, mouse
Procedure: Mouse embryonic fibroblasts NIH3T3 cells were grown in standard DMEM with 10% fetal calf serum. NIH3T3 cells were transfected with 1 μg of Per2-Luc reporter (Meng, 2009) using GeneJuice (Novagen) and selected under hygromycin. The cell line was clonally expanded and a single monoclonal cell line was used for further experiments. Cells were cultured in a 96-well plate in growth medium to 90+% confluence. Test compound or vehicle (DMSO) was applied to recording medium with 100 U/ml penicillin, 100 μg/ml streptomycin, 1×GlutaMAX (ThermoFisher, Waltham, MA, USA), 10% fetal calf serum (Sigma) and 0.1 mM Luciferin-EF (Promega Madison, WI, USA). Luminescence was recorded every hour for an additional 144 hours in a Luminoskan Ascent (ThermoFisher). Circadian rhythm analysis was performed using cosinor analysis. […] The concentration and level of other proteins, whose rhythmic expression is controlled by an oscillator in the brain and peripheral tissues (so-called clock-controlled genes), is also necessarily affected.

[9] = tested on: U2OS cells transduced by transcriptional circadian reporter mBmal1-Luc; assay: Circadian rhythm period, U2OS cells with Bmal1-Luc reporter (Example 1); assay type: cell-based, human; conditions: luminescence 144 hours, cosinor analysis, FIG. 1
Procedure: Human osteosarcoma U2OS cells were grown in standard DMEM with 10% fetal calf serum. U2OS cells were transduced with lentiviral particles containing the reporter pLV6-Bmal1-Luc (S. Brown, Addgene plasmid #68833) and selected under Blasticidin. The cell line was clonally expanded and a single monoclonal cell line was used for further experiments. Cells were cultured in a 384-well plate in growth medium to 90+% confluence. Test compound or vehicle (DMSO) was applied to recording medium with 100 U/ml penicillin, 100 μg/ml streptomycin, 1× GlutaMAX (ThermoFisher, Waltham, MA, USA), 10% fetal calf serum (Sigma) and 0.1 mM Luciferin-EF (Promega Madison, WI, USA). Luminescence was recorded every hour for an additional 144 hours in Luminoskan Ascent (ThermoFisher). Circadian rhythm analysis was performed using cosinor analysis.

[10] = tested on: Bmal1 gene expression (mBmal1-Luc reporter); assay: mBmal1-Luc reporter expression in U2OS cells (Example 4); assay type: cell-based, human; conditions: first 5-15 hours after application, FIG. 4
Procedure: as §1, with “Test compound” for “Test compounds”, “(DMSO) was” for “(DMSO) were”, “(ThermoFisher).” for “(ThermoFisher). Circadian rhythm analysis was performed by cosinor analysis.”

SMILES: c1coc(CNc2ncnc3nc[nH]c23)c1 [N-(furan-2-ylmethyl)-7H-purin-6-amine]
- Per2 gene expression [1]: regulates Per2 gene expression
- cell growth (cell count) (Human fibroblasts BJ): did not have a negative effect on cell growth
- effect on the length of the circadian period in combination with compounds that extend the circadian period ([2]; 50 μM together with PF670, T0901317, KL001, rosiglitazon, SR9009, FIG. 6A-6E): additive or even synergistic effect
- effect on the period when added to harmine ([2]; 50 μM together with harmine, FIG. 6F): caused a decrease of the period
- activity of antineoplastics on A549 viability after pretreatment (cancer cell line A549): increases activity of antineoplastics
- Papp at 18 h, 20 AM (in vitro [3]): 5.01 ×10⁻⁶ cm/s
- IC10 [4]: > 100 µM
- IC10 (skin fibroblasts BJ): > 100 µM
- circadian rhythm period ([5]; FIG. 3B): prolongs the circadian rhythm period
- amplitude ([5]; FIG. 3C): modulates the amplitude
- Papp at 1 h, 10 μM (in vitro [6]; dog, MDCK-MDR1, pH 7.4): 315 ×10⁻⁶ cm/s
- Papp at 2 h, 10 μM (in vitro [6]; human, Caco-2, pH 7.4): 76 ×10⁻⁶ cm/s
- Plasma stability (120 min) [% intact] [7]: 91 % intact
- amplitude of circadian expression of mPer2-Luc ([8]; NIH3T3, FIG. 2): modulates the amplitude
- circadian rhythm period ([8]; NIH3T3 mPer2-Luc, luminescence 144 hours, cosinor analysis, FIG. 2): prolongs the circadian rhythm period
- circadian rhythm period [9]: extends the circadian rhythm period
- Bmal1 gene expression [10]: affects Bmal1 gene expression
